From PubChem BioAssay AID248 (DTP/NCI, 2004)
“And” between values parts separate entries of the source, which are not always exact repeats. Equal values may be shown once. Toxic doses and inconclusive results are not listed.

Test system: L1210 leukemia ip in BDF1 mice, survival T/C
Assay: NCI In Vivo Anticancer Drug Screen. Data for tumor model L1210 Leukemia (intraperitoneal) in B6D2F1 (BDF1) mice
Details: endpoint: mean survival time, higher = longer survival
Method in brief: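 Ratio derived from survival: compound-dosed mice over vehicle-dosed mice, all bearing a transplantable tumor.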

[1] = dose: 50.0 mg/kg/injection, schedule: Q01DX009 (ip), vehicle: saline
[2] = dose: 100.0 mg/kg/injection, schedule: Q01DX009 (ip), vehicle: saline with Tween-80
[3] = dose: 200.0 mg/kg/injection, schedule: Q01DX009 (ip), vehicle: saline with Tween-80
[4] = dose: 400.0 mg/kg/injection, schedule: Q01DX009 (ip), vehicle: saline with Tween-80
[5] = dose: 25.0 mg/kg/injection, schedule: Q01DX009 (ip), vehicle: Klucel (hydroxypropylcellulose) (HPC)
[6] = dose: 50.0 mg/kg/injection, schedule: Q01DX009 (ip), vehicle: Klucel (hydroxypropylcellulose) (HPC)
[7] = dose: 100.0 mg/kg/injection, schedule: Q01DX009 (ip), vehicle: Klucel (hydroxypropylcellulose) (HPC)
[8] = dose: 200.0 mg/kg/injection, schedule: Q01DX009 (ip), vehicle: Klucel (hydroxypropylcellulose) (HPC)
[9] = dose: 400.0 mg/kg/injection, schedule: Q01DX009 (ip), vehicle: Klucel (hydroxypropylcellulose) (HPC)
[10] = dose: 100.0 mg/kg/injection, schedule: Q04DX003 (ip), vehicle: saline with Tween-80
[11] = dose: 200.0 mg/kg/injection, schedule: Q04DX003 (ip), vehicle: saline with Tween-80
[12] = dose: 400.0 mg/kg/injection, schedule: Q04DX003 (ip), vehicle: saline with Tween-80
[13] = dose: 100.0 mg/kg/injection, schedule: Q01DX009 (ip), vehicle: saline
[14] = dose: 100.0 mg/kg/injection, schedule: Q04DX002 (ip), vehicle: saline with Tween-80
[15] = dose: 200.0 mg/kg/injection, schedule: Q04DX002 (ip), vehicle: saline with Tween-80
[16] = dose: 400.0 mg/kg/injection, schedule: Q04DX002 (ip), vehicle: saline with Tween-80

Cc1ccc(S(=O)(=O)OCCN(CCOS(=O)(=O)c2ccc(C)cc2)c2ccc(F)cc2)cc1
T/C (dose: 1.9 mg/kg/injection, schedule: Q01DX009 (ip), vehicle: saline): 122 % of control
T/C (dose: 4.4 mg/kg/injection, schedule: Q01DX009 (ip), vehicle: saline): 122 % of control
T/C (dose: 6.5 mg/kg/injection, schedule: Q01DX009 (ip), vehicle: saline): 102 % of control
T/C (dose: 9.6 mg/kg/injection, schedule: Q01DX009 (ip), vehicle: saline): 124 % of control
T/C (dose: 10.0 mg/kg/injection, schedule: Q01DX009 (ip), vehicle: saline): 118 % of control
T/C (dose: 16.0 mg/kg/injection, schedule: Q01DX009 (ip), vehicle: saline): 113 % of control
T/C (dose: 22.0 mg/kg/injection, schedule: Q01DX009 (ip), vehicle: saline): 166 % of control
T/C (dose: 23.0 mg/kg/injection, schedule: Q01DX009 (ip), vehicle: saline): 113 % of control
T/C (dose: 24.0 mg/kg/injection, schedule: Q01DX009 (ip), vehicle: saline): 152 % of control
T/C (dose: 35.0 mg/kg/injection, schedule: Q01DX009 (ip), vehicle: saline): 121 % of control
T/C (dose: 50.0 mg/kg/injection, schedule: Q01DX001 (ip), vehicle: saline): 97 % of control
T/C [1]: 95 % of control
T/C (dose: 53.0 mg/kg/injection, schedule: Q01DX009 (ip), vehicle: other): 110 % of control
T/C (dose: 75.0 mg/kg/injection, schedule: Q01DX009 (ip), vehicle: saline): 88 % of control
T/C (dose: 79.0 mg/kg/injection, schedule: Q01DX009 (ip), vehicle: other): 98 % of control and 119 % of control
T/C (dose: 100.0 mg/kg/injection, schedule: Q01DX001 (ip), vehicle: saline): 100 % of control
T/C (dose: 118.0 mg/kg/injection, schedule: Q01DX009 (ip), vehicle: other): 104 % of control
T/C (dose: 150.0 mg/kg/injection, schedule: Q01DX009 (ip), vehicle: saline): 123 % of control
T/C (dose: 200.0 mg/kg/injection, schedule: Q01DX001 (ip), vehicle: saline): 105 % of control
T/C (dose: 400.0 mg/kg/injection, schedule: Q01DX001 (ip), vehicle: saline): 115 % of control

CCCC(CC#N)(CCC)CCC
T/C (dose: 37.5 mg/kg/injection, schedule: Q01DX Z (ip), vehicle: carboxymethylcellulose (CMC)): 97 % of control
T/C (dose: 75.0 mg/kg/injection, schedule: Q01DX Z (ip), vehicle: carboxymethylcellulose (CMC)): 101 % of control
T/C (dose: 100.0 mg/kg/injection, schedule: Q01DX Z (ip), vehicle: carboxymethylcellulose (CMC)): 95 % of control
T/C (dose: 200.0 mg/kg/injection, schedule: Q01DX Z (ip), vehicle: carboxymethylcellulose (CMC)): 100 % of control

Oc1ccc2nocc2c1N=Nc1ccccc1
T/C (dose: 50.0 mg/kg/injection, schedule: Q01DX009 (ip), vehicle: saline with Tween-80): 98 % of control
T/C [2]: 98 % of control
T/C [3]: 95 % of control

CCSc1cccc(C(=O)O)c1
T/C (dose: 100.0 mg/kg/injection, schedule: Q01DX001 (ip), vehicle: carboxymethylcellulose (CMC)): 102 % of control
T/C (dose: 200.0 mg/kg/injection, schedule: Q01DX001 (ip), vehicle: carboxymethylcellulose (CMC)): 94 % of control
T/C (dose: 400.0 mg/kg/injection, schedule: Q01DX001 (ip), vehicle: carboxymethylcellulose (CMC)): 100 % of control

N#C/C=C/c1cccc([N+](=O)[O-])c1
T/C [2]: 102 % of control
T/C [3]: 93 % of control
T/C [4]: 98 % of control

CC(C)=CCC(N)CC=C(C)C
T/C (dose: 12.5 mg/kg/injection, schedule: Q01DX009 (ip), vehicle: Klucel (hydroxypropylcellulose) (HPC)): 91 % of control
T/C [5]: 102 % of control
T/C (dose: 25.0 mg/kg/injection, schedule: Q04DX002 (ip), vehicle: Klucel (hydroxypropylcellulose) (HPC)): 112 % of control
T/C [6]: 106 % of control
T/C (dose: 50.0 mg/kg/injection, schedule: Q04DX002 (ip), vehicle: Klucel (hydroxypropylcellulose) (HPC)): 105 % of control

COc1ccc(C(=O)CC(C(=O)O)c2ccc3c(c2)OCO3)cc1OC (configuration not stated)
T/C [2]: 96 % of control
T/C [3]: 98 % of control
T/C [4]: 98 % of control

CCCCOc1ccc(/C=N/NC(=S)Nc2ccccc2)cc1
T/C [7]: 97 % of control
T/C [8]: 98 % of control
T/C [9]: 95 % of control

CCOC(=O)CCCN(c1sc(C)c(C)c1C(=O)OCC)S(=O)(=O)c1ccc(C)cc1
T/C [6]: 86 % of control
T/C (dose: 50.0 mg/kg/injection, schedule: Q04DX003 (ip), vehicle: saline with Tween-80): 97 % of control
T/C [7]: 105 % of control
T/C [10]: 97 % of control
T/C [8]: 86 % of control
T/C [11]: 97 % of control
T/C [9]: 90 % of control
T/C [12]: 101 % of control

CCOC(=O)C(=O)O
T/C (dose: 25.0 mg/kg/injection, schedule: Q01DX009 (ip), vehicle: saline): 96 % of control
T/C [1]: 103 % of control
T/C [13]: 96 % of control
T/C (dose: 100.0 mg/kg/injection, schedule: Q04DX002 (ip), vehicle: saline): 106 % of control
T/C (dose: 200.0 mg/kg/injection, schedule: Q04DX002 (ip), vehicle: saline): 109 % of control
T/C (dose: 400.0 mg/kg/injection, schedule: Q04DX002 (ip), vehicle: saline): 97 % of control

CN1CCN(c2ccc(Cl)cc2)CC1
T/C [5]: 97 % of control
T/C (dose: 25.0 mg/kg/injection, schedule: Q04DX003 (ip), vehicle: Klucel (hydroxypropylcellulose) (HPC)): 97 % of control
T/C [6]: 106 % of control
T/C (dose: 50.0 mg/kg/injection, schedule: Q04DX003 (ip), vehicle: Klucel (hydroxypropylcellulose) (HPC)): 105 % of control
T/C [7]: 100 % of control
T/C (dose: 100.0 mg/kg/injection, schedule: Q04DX003 (ip), vehicle: Klucel (hydroxypropylcellulose) (HPC)): 106 % of control

CCOC(=O)/C(O)=C\c1nnccc1Cl
T/C (dose: 56.25 mg/kg/injection, schedule: Q04DX002 (ip), vehicle: saline): 96 % of control
T/C (dose: 112.5 mg/kg/injection, schedule: Q04DX002 (ip), vehicle: saline): 104 % of control
T/C (dose: 225.0 mg/kg/injection, schedule: Q04DX002 (ip), vehicle: saline): 101 % of control

CC1OC1CO (configuration not stated)
T/C [10]: 96 % of control
T/C [11]: 101 % of control
T/C [12]: 89 % of control

COc1cc(N)c2nccc(N(C)C)c2c1
T/C [13]: 99 % of control
T/C (dose: 100.0 mg/kg/injection, schedule: Q04DX003 (ip), vehicle: saline): 97 % of control
T/C (dose: 200.0 mg/kg/injection, schedule: Q01DX009 (ip), vehicle: saline): 107 % of control
T/C (dose: 200.0 mg/kg/injection, schedule: Q04DX003 (ip), vehicle: saline): 103 % of control
T/C (dose: 400.0 mg/kg/injection, schedule: Q04DX003 (ip), vehicle: saline): 101 % of control

COc1cc(C(=O)NC(=S)Nc2ccc3ccccc3c2)cc(OC)c1OC
T/C [14]: 91 % of control
T/C [15]: 97 % of control
T/C [16]: 91 % of control

O=C(O)COc1cc(Cl)ccn1
T/C (dose: 100.0 mg/kg/injection, schedule: Q04DX002 (ip), vehicle: Klucel (hydroxypropylcellulose) (HPC)): 100 % of control
T/C (dose: 200.0 mg/kg/injection, schedule: Q04DX002 (ip), vehicle: Klucel (hydroxypropylcellulose) (HPC)): 93 % of control
T/C (dose: 400.0 mg/kg/injection, schedule: Q04DX002 (ip), vehicle: Klucel (hydroxypropylcellulose) (HPC)): 110 % of control

O=C(CCc1ccccc1)c1ccccc1
T/C [14]: 97 % of control
T/C [15]: 97 % of control
T/C [16]: 90 % of control

Cc1ccc(-n2c(O)c(N=Nc3ccc(Cl)cc3)c(=O)n(-c3ccc(Br)cc3)c2=S)cc1
T/C (dose: 50.0 mg/kg/injection, schedule: Q01DX001 (ip), vehicle: Klucel (hydroxypropylcellulose) (HPC)): 103 % of control
T/C (dose: 100.0 mg/kg/injection, schedule: Q01DX001 (ip), vehicle: Klucel (hydroxypropylcellulose) (HPC)): 105 % of control
T/C (dose: 200.0 mg/kg/injection, schedule: Q01DX001 (ip), vehicle: Klucel (hydroxypropylcellulose) (HPC)): 108 % of control
